We go through 22 compounds from patent US20250179065A1, “HDAC6 INHIBITORS AND USES THEREOF” (Eikonizo Therapeutics, Inc., priority 2022, published 2025).

One assay has as its target Full length Human HDAC6 (Homo sapiens (Human), UniProt Q9UBN7). In words: Caliper endpoint assay for HDAC enzymatic activity (HDAC6). It is filed as biochemical. To be noted: for pIC50: in vitro enzymatic, 30 min pre-incubation, 1 μM FAM-RHKK(Ac)-NH2 substrate; for Selectivity (6 v 8) (fold): ratio of HDAC8 IC50/HDAC6 IC50.
The target in the next assay is Full length Human HDAC8 (Homo sapiens (Human), UniProt Q9BY41). In words: Caliper endpoint assay for HDAC enzymatic activity (HDAC8). It is filed as biochemical. To be noted: in vitro enzymatic, 30 min pre-incubation, 1 μM FAM-RHKK(TFAc)-NH2 substrate.

Usually pIC50 stands for the negative decadic logarithm of the IC50, by convention in mol/L.

pIC50: −log10 of the molar value. Where only a bound is given, the exact number is not on record here.

Sequence of Full length Human HDAC8 (Q9BY41 whole entry): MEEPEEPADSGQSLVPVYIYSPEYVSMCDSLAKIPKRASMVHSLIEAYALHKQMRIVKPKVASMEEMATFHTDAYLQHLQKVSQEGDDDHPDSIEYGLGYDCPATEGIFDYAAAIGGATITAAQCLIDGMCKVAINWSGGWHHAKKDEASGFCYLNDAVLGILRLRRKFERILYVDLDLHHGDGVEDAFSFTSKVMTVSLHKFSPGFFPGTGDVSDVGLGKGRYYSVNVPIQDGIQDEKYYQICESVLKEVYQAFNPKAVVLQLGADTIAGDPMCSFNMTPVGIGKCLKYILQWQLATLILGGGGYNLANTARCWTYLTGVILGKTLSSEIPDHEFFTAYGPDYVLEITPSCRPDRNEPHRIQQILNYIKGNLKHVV
Sequence of Full length Human HDAC6 (Q9UBN7 whole entry): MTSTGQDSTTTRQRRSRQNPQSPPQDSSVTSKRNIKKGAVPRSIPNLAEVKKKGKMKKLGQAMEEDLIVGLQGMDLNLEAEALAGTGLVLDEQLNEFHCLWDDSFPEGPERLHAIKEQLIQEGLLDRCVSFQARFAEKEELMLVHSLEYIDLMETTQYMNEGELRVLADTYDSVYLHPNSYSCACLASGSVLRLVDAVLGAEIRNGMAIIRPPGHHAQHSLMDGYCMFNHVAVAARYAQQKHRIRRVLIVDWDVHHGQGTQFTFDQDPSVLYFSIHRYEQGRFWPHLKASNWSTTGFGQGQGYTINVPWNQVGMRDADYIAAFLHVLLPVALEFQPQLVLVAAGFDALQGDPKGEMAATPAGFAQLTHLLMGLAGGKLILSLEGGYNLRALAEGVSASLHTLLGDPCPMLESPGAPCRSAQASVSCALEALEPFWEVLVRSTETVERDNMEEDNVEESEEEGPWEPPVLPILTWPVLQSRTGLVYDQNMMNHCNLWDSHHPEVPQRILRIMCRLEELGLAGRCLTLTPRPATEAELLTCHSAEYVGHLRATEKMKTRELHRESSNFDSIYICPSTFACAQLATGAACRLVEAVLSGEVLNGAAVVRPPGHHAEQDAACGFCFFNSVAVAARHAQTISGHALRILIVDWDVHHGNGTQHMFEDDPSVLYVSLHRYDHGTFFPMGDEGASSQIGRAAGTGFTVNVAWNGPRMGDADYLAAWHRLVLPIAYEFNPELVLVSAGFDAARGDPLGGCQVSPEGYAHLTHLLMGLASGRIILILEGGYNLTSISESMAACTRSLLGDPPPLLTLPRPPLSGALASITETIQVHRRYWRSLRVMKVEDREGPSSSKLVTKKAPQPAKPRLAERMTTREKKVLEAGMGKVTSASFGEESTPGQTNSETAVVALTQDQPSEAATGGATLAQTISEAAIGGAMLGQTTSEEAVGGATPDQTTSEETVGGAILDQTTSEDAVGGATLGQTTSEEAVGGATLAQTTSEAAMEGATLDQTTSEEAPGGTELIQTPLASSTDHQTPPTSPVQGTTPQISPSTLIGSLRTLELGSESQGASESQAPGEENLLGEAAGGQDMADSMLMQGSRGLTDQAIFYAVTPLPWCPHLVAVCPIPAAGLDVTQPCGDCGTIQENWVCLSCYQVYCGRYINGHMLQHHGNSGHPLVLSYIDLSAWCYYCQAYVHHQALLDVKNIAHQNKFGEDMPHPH

In the case of `O=C(NO)c1cnc2c(c1)CCN([C@@H]1CCCC3(CCC3)C1)C2` (single isomer, unassigned) [Compound 194], at Full length Human HDAC6, the pIC50 was 6.00 to 7.00 and the “Selectivity (6 v 8) (fold)” value was “III (III: >10-100)”. Moreover, on Full length Human HDAC8, the pIC50 was 4.00 to 5.00.
With `O=C(NO)c1cnc2c(c1)CCN([C@H]1CCCC3(CCC3)C1)C2` (single isomer, unassigned) [Compound 195], the figures for the pIC50 against Full length Human HDAC6 and at Full length Human HDAC8 were 7.00 to 9.00 and 5.00 to 6.00, respectively. For the same compound, the “Selectivity (6 v 8) (fold)” value on Full length Human HDAC6 was “IV (IV: >100-1000)”.
The compound `O=C(NO)c1cnc2c(c1)CCN(C1CC3(CCCNC3)C1)C2` (single isomer, unassigned) [Compound 341] gave a pIC50 against Full length Human HDAC8 of 4.00 to 5.00.
On Full length Human HDAC8, `O=C(NO)c1cnc2c(c1)CCN(C1CC3(CCCNC3)C1)C2` (single isomer, unassigned) [Compound 342] had a pIC50 of 4.00 to 5.00.
Regarding `CN1CCC[C@]2(C1)C[C@@H](N1CCc3cc(C(=O)NO)cnc3C1)C2` (single isomer, unassigned) [Compound 343], on Full length Human HDAC6, the pIC50 was 6.00 to 7.00 and the “Selectivity (6 v 8) (fold)” value is recorded as “III (III: >10-100)”. Also, the pIC50 against Full length Human HDAC8 was 5.00 to 6.00.
For `CN1CCC[C@]2(C1)C[C@H](N1CCc3cc(C(=O)NO)cnc3C1)C2` (single isomer, unassigned) [Compound 344], in that order: 6.00 to 7.00, “III (III: >10-100)” and 5.00 to 6.00.
As for `O=C(NO)c1cnc2c(c1)CCN([C@H]1CCC3(CCC3)C1)C2` (single isomer, unassigned) [Compound 383], at Full length Human HDAC6, the pIC50 was 7.00 to 9.00 and the “Selectivity (6 v 8) (fold)” value is listed as “IV (IV: >100-1000)”. The pIC50 at Full length Human HDAC8 was 4.00 to 5.00.
On to `O=C(NO)c1cnc2c(c1)CCN(CC13CC4CC(CC(C4)O1)C3)C2` [Compound 14], for which the pIC50 at Full length Human HDAC6 is 7.00 to 9.00; against Full length Human HDAC8 it was 4.00 to 5.00. In addition, the “Selectivity (6 v 8) (fold)” value on Full length Human HDAC6 is “IV (IV: >100-1000)”.
On to `O=C(NO)c1cnc2c(c1)CCN(C1CC3(CCCCC3)C1)C2` [Compound 16, N-hydroxy-7-(spiro[3.5]nonan-2-yl)-5,6,7,8-tetrahydro-1,7-naphthyridine-3-carboxamide], for which, on Full length Human HDAC6, the pIC50 was 7.00 to 9.00 and the “Selectivity (6 v 8) (fold)” value is on record as “IV (IV: >100-1000)”. Also, the pIC50 against Full length Human HDAC8 is 4.00 to 5.00.
For `O=C(NO)c1cnc2c(c1)CCN(C1CC3(CCOCC3)C1)C2` [Compound 179, N-hydroxy-7-(7-oxaspiro[3.5]nonan-2-yl)-5,6,7,8-tetrahydro-1,7-naphthyridine-3-carboxamide], in that order: 6.00 to 7.00, “III (III: >10-100)” and 5.00 to 6.00.
`O=C(NO)c1cnc2c(c1)CCN(C1CC3(CCCC3)C1)C2` [Compound 183, N-hydroxy-7-(spiro[3.4]octan-2-yl)-5,6,7,8-tetrahydro-1,7-naphthyridine-3-carboxamide]: on Full length Human HDAC6, the pIC50 was 7.00 to 9.00 and the “Selectivity (6 v 8) (fold)” value is recorded as “IV (IV: >100-1000)”. Also, the pIC50 on Full length Human HDAC8 is 5.00 to 6.00.
As to `O=C(NO)c1cnc2c(c1)CCN([C@H]1C[C@@]3(CCOC3)C1)C2` [Compound 188, N-hydroxy-7-((2r,4r)-6-oxaspiro[3.4]octan-2-yl)-5,6,7,8-tetrahydro-1,7-naphthyridine-3-carboxamide], the figures for the pIC50 at Full length Human HDAC6 and on Full length Human HDAC8 were 6.00 to 7.00 and 4.00 to 5.00, respectively. Further, the “Selectivity (6 v 8) (fold)” value on Full length Human HDAC6 was “IV (IV: >100-1000)”.
As for `O=C(NO)c1cnc2c(c1)CCN([C@H]1C[C@]3(CCOC3)C1)C2` [Compound 189, N-hydroxy-7-((2s,4s)-6-oxaspiro[3.4]octan-2-yl)-5,6,7,8-tetrahydro-1,7-naphthyridine-3-carboxamide], on Full length Human HDAC6, the pIC50 was 6.00 to 7.00 and the “Selectivity (6 v 8) (fold)” value was “IV (IV: >100-1000)”. Moreover, on Full length Human HDAC8, the pIC50 was 4.00 to 5.00.
For `O=C(NO)c1cnc2c(c1)CCN(C1CCC3(CCC3)CC1)C2` [Compound 192, N-hydroxy-7-(spiro[3.5]nonan-7-yl)-5,6,7,8-tetrahydro-1,7-naphthyridine-3-carboxamide], in that order: 7.00 to 9.00, “IV (IV: >100-1000)” and 5.00 to 6.00.
As to `O=C(NO)c1cnc2c(c1)CCN(C1CC3(CCNCC3)C1)C2` [Compound 197, N-hydroxy-7-(7-azaspiro[3.5]nonan-2-yl)-5,6,7,8-tetrahydro-1,7-naphthyridine-3-carboxamide], on Full length Human HDAC6, the pIC50 was 6.00 to 7.00 and the “Selectivity (6 v 8) (fold)” value is recorded as “III (III: >10-100)”. Further, on Full length Human HDAC8, the pIC50 is 4.00 to 5.00.
`CN1CCC2(CC1)CC(N1CCc3cc(C(=O)NO)cnc3C1)C2` [Compound 198, N-hydroxy-7-(7-methyl-7-azaspiro[3.5]nonan-2-yl)-5,6,7,8-tetrahydro-1,7-naphthyridine-3-carboxamide]: the pIC50 was 6.00 to 7.00 on Full length Human HDAC6 and 5.00 to 6.00 at Full length Human HDAC8. For the same compound, the “Selectivity (6 v 8) (fold)” value on Full length Human HDAC6 is “III (III: >10-100)”.
With `CC(=O)N1CCC2(CC1)CC(N1CCc3cc(C(=O)NO)cnc3C1)C2` [Compound 199, 7-(7-acetyl-7-azaspiro[3.5]nonan-2-yl)-N-hydroxy-5,6,7,8-tetrahydro-1,7-naphthyridine-3-carboxamide], on Full length Human HDAC6, the pIC50 was 6.00 to 7.00 and the “Selectivity (6 v 8) (fold)” value is recorded as “III (III: >10-100)”. At Full length Human HDAC8, this compound gave a pIC50 of 4.00 to 5.00.
In the same order, the values of `O=C(NO)c1cnc2c(c1)CCN(C1CC3(CNC3)C1)C2` [Compound 289] are 6.00 to 7.00, “III (III: >10-100)” and 4.00 to 5.00.
For the compound `CN1CCC2(CCC(N3CCc4cc(C(=O)NO)cnc4C3)C2)CC1` (centres unmarked) [Compound 417], at Full length Human HDAC6, the pIC50 was 6.00 to 7.00 and the “Selectivity (6 v 8) (fold)” value was “III (III: >10-100)”. The same compound gave a pIC50 against Full length Human HDAC8 of 5.00 to 6.00.
Take `O=C(NO)c1cc2c(cn1)CN(C1CC3(CCCCC3)C1)CC2` [DDD]: on Full length Human HDAC6, the pIC50 is 5.00 to 6.00 and the “Selectivity (6 v 8) (fold)” value is given as “III (III: >10-100)”. Besides, at Full length Human HDAC8, the pIC50 is 4.00 to 5.00.
Turning to `O=C(NO)c1ccc2c(n1)CCN(C1CC3(CCCCC3)C1)C2` [EEE], at Full length Human HDAC6, the pIC50 is 6.00 to 7.00 and the “Selectivity (6 v 8) (fold)” value was “V (V: >1000)”. This compound also showed a pIC50 at Full length Human HDAC8 of less than 4.00.
With `O=C(NO)c1ncc2c(n1)CCN(C1CC3(CCCCC3)C1)C2` [FFF, N-hydroxy-6-(spiro[3.5]nonan-2-yl)-5,6,7,8-tetrahydropyrido[4,3-d]pyrimidine-2-carboxamide], at Full length Human HDAC6, the pIC50 is less than 4.00 and the “Selectivity (6 v 8) (fold)” value is given as “II (II: >1-10)”. At Full length Human HDAC8, this compound showed a pIC50 of less than 4.00.
